Assay results published in ChEMBL document CHEMBL1201862, “PubChem BioAssay data set” (2004).
The source made the active and inactive calls.

Legend:
NS3 = NS3 (Hepatitis C virus, UniProt A3EZJ3); assay: PubChem AID 2173; parameters: species or system Hepacivirus hominis
Salmon testes DNA = assay: acridine orange-DNA binding displacement – biochemical, fluorescence polarization, cherry-picked samples, set 2, artefact control for KSHV LANA DNA-binding inhibitor project, dose response (AID 504727); parameters: species or system Salmonidae
Protein RecA = target: T1, Protein RecA (Mycobacterium tuberculosis, UniProt P9WHJ3); assay: Fluorescence Cell-Free Homogeneous Dose Retest to Identify Inhibitors of RecA-Intein Splicing Activity. [Related pubchem assays (depositor defined):AID2097, AID2223, AID489010, AID492950]; type: functional
T1 sequence (P9WHJ3 whole entry): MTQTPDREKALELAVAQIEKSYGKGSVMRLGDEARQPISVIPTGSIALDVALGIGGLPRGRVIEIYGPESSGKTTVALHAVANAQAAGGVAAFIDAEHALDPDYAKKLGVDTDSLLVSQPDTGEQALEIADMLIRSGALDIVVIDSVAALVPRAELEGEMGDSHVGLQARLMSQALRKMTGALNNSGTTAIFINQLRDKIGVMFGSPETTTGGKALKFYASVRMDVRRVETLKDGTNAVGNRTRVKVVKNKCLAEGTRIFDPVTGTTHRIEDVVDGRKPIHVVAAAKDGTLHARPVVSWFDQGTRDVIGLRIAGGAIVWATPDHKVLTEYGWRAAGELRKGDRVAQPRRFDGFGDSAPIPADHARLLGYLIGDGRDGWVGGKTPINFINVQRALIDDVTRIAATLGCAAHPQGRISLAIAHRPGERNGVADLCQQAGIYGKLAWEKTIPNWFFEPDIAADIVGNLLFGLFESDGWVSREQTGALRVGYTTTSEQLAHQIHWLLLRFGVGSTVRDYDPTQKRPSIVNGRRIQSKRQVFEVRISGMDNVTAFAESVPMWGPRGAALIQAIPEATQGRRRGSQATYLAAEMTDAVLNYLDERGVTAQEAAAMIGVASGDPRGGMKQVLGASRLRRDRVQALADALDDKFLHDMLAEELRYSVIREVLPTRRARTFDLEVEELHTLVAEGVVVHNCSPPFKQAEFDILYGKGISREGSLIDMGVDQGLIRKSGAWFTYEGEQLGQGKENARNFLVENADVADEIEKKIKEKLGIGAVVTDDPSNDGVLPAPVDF

[1] = target: T2, Histone-lysine N-methyltransferase NSD2 (Homo sapiens, UniProt O96028); type: biochemical
T2 sequence (O96028 whole entry): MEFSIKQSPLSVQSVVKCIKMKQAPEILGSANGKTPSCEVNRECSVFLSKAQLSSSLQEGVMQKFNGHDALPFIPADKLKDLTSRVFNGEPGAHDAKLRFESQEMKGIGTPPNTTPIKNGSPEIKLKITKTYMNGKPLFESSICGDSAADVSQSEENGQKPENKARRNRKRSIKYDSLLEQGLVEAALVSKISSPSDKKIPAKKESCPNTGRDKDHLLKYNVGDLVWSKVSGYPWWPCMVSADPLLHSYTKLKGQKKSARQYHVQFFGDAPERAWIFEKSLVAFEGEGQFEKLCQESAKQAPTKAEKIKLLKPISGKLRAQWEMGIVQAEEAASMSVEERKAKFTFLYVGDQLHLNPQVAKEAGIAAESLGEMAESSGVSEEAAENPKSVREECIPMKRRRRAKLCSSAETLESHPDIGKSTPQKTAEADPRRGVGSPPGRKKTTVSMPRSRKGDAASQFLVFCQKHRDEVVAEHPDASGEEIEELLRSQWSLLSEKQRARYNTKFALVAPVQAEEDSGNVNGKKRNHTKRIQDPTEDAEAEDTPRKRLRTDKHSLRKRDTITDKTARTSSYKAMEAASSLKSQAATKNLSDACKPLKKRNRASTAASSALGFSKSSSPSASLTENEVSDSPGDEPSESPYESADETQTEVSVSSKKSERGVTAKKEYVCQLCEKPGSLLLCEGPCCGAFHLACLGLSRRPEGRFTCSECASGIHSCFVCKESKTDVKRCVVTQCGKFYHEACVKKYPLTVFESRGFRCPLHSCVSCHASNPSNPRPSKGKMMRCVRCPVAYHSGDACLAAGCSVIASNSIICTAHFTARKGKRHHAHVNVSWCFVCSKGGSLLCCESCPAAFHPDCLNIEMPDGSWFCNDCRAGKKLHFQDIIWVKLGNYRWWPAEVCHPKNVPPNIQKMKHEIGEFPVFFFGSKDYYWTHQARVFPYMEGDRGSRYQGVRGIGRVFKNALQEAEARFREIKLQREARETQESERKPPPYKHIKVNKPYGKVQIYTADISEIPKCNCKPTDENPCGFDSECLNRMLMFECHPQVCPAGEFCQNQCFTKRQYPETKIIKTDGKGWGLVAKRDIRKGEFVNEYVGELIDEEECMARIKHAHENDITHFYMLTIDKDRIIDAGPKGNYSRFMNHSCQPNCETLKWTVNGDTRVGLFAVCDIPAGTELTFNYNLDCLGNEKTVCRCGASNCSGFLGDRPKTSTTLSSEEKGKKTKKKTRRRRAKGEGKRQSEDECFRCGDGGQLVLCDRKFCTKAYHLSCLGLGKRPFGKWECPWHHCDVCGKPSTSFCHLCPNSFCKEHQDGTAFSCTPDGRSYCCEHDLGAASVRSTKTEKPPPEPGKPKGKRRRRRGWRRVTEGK

[2] = A cytotoxicity screen of small molecule inhibitors of the PhoP region in Salmonella typhi identified in the primary screen. [Related pubchem assays: 1850, 1864, 1985 ]; type: functional
HeLa = assay: viability loss in HeLa cells – cell-based, 24 h, cherry-picked samples, cytotoxicity control, dose response (AID 504726); type: functional; conditions: Homo sapiens;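 note: potency for cytotoxicity as loss of luminescence signal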
[3] = target: Transitional endoplasmic reticulum ATPase (Homo sapiens, UniProt P55072, C522A); assay: C522A mutant p97 ATPase inhibitors, dose response, counter-screen for p97 inhibitor project, biochemical, luminescence (AID 1544)
[4] = target: Transitional endoplasmic reticulum ATPase (Homo sapiens, UniProt P55072); assay: p97 ATPase inhibitors, dose response, biochemical (AID 1534)
[5] = target: G2/mitotic-specific cyclin-B1 (Homo sapiens, UniProt P14635); assay: HeLa cell cycle G2/M accumulation – FACS, mechanism study for Wee1 degradation inhibitor project, late-stage follow-up, panel member Cyclin B Degradation (AID 2088)
Wee1-like protein kinase = Wee1-like protein kinase (Homo sapiens, UniProt P30291); assay: HeLa cell cycle G2/M accumulation – FACS, mechanism study for Wee1 degradation inhibitor project, late-stage follow-up, panel member Wee1 Degradation (AID 2088)
Sequence of Wee1-like protein kinase (P30291 whole entry): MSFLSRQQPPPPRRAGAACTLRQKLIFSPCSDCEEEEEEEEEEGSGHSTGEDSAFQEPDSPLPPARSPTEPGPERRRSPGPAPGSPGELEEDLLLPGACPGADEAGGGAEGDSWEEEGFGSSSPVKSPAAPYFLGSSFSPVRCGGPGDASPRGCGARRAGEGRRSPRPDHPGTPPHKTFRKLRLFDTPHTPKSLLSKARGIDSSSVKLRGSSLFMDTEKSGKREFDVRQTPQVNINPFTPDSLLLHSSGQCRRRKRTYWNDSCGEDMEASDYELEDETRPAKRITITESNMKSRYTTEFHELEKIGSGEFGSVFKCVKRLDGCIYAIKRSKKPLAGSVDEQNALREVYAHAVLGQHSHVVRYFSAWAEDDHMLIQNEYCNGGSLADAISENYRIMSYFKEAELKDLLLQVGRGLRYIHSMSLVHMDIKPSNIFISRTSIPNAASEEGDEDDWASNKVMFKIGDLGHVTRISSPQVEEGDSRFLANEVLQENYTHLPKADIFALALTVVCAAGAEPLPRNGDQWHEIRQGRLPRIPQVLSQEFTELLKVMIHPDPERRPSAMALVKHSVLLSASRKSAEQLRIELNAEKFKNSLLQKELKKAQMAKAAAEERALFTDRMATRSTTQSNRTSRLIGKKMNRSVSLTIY

Sequence of Transitional endoplasmic reticulum ATPase (Homo sapiens, UniProt P55072) (P55072 whole entry): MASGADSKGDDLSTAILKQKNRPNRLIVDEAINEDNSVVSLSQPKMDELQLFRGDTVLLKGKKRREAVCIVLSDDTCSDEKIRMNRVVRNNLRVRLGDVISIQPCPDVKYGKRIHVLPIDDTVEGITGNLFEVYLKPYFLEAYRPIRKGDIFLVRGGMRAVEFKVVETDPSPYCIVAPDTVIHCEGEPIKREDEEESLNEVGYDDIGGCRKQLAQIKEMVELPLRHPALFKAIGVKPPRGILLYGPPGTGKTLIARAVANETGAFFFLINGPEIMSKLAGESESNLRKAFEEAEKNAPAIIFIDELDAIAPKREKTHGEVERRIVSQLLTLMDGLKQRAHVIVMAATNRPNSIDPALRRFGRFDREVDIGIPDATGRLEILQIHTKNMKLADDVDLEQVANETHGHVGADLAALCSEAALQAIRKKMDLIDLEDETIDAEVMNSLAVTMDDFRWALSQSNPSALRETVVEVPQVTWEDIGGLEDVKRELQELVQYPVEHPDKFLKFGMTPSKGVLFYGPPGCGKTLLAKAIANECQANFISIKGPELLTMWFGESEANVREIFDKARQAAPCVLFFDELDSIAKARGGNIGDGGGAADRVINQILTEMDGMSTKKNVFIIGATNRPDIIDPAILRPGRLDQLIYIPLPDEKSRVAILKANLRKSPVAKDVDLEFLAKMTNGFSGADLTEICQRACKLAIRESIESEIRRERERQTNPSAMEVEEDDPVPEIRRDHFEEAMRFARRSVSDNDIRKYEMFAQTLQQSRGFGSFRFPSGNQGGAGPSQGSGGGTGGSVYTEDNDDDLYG
Sequence of G2/mitotic-specific cyclin-B1 (P14635 whole entry): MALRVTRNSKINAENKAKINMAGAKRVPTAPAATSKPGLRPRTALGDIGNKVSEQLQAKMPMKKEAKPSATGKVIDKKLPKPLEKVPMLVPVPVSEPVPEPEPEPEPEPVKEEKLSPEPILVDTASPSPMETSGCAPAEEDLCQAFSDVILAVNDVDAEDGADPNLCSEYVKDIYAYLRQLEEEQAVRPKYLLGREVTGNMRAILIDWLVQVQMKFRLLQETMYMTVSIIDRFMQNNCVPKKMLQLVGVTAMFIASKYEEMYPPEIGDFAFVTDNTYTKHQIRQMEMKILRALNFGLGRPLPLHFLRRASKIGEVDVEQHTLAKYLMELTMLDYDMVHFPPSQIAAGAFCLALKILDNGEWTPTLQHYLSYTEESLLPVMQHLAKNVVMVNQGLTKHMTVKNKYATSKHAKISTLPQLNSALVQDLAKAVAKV
Sequence of Transitional endoplasmic reticulum ATPase (Homo sapiens, UniProt P55072, C522A) (P55072 2-806 C522A limits assumed): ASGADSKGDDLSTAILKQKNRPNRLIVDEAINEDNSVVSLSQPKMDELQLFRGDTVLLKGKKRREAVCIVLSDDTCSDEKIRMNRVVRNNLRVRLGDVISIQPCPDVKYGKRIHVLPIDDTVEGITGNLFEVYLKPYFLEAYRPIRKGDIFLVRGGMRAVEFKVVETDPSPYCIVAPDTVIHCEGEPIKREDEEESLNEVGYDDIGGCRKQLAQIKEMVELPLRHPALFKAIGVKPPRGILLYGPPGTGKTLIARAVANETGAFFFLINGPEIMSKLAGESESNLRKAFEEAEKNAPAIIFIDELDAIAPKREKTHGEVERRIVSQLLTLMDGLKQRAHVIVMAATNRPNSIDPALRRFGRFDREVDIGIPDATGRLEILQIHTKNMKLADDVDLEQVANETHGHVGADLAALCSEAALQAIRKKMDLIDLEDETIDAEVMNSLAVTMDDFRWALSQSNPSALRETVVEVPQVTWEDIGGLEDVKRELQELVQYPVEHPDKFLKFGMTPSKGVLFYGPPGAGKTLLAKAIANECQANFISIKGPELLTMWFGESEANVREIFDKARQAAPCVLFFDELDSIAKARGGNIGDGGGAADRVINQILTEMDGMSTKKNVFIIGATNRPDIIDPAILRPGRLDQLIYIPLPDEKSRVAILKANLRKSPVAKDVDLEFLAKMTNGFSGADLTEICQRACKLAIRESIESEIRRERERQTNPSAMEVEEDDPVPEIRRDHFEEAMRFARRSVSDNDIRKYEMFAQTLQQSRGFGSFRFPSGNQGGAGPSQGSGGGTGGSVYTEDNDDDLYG
Sequence of NS3 (A3EZJ3 whole entry): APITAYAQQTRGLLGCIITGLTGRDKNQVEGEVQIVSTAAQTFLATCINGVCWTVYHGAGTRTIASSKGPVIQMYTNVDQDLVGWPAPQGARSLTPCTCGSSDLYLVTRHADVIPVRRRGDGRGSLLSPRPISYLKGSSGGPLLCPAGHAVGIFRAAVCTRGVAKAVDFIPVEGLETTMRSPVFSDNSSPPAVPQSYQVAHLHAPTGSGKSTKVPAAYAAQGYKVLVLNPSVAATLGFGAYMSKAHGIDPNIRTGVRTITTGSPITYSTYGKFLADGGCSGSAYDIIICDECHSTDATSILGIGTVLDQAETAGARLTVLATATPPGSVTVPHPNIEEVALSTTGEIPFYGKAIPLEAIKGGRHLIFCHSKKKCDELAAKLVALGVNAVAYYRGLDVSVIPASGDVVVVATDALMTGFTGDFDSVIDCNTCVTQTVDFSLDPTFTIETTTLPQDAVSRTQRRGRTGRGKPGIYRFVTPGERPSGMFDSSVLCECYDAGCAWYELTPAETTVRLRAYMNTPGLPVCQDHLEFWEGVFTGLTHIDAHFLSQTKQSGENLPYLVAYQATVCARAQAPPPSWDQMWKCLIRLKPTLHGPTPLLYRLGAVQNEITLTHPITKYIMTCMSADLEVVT

SMILES | IC50 (NS3) | AC50 (Salmon testes DNA) | EC50 (Protein RecA) | AC50 [1] | EC50 [2] | AC50 (HeLa) | IC50 [3] | IC50 [4] | EC50 [5] | EC50 (Wee1-like protein kinase)
CCCCn1c(NS(=O)(=O)c2ccc(C)cc2)c(S(=O)(=O)c2ccccc2)c2nc3ccccc3nc21 | 0.662 µM (active) | 43.7 µM (active) | > 380 µM (inconclusive) | 12.2 µM (active) | > 50 µM (active) | 313 µM (active) | > 50 µM (not active) | > 50 µM (not active) | – | –
Cc1cc(O)nc(-n2nc(C)cc2NC(=O)c2ccc(Br)cc2)n1 | – | – | – | – | – | – | – | – | > 49.7 µM (inactive) | > 49.7 µM (inactive)
